Experimental data published in ChEMBL document CHEMBL1125966, “Synthesis and pharmacological evaluation of combined thromboxane receptor antagonist/synthase inhibitors: pyridine-containing sulphonamido acids” (Bioorg Med Chem Lett, 1991).

Legend:
Thromboxane A2 receptor [1] = target: T1, Thromboxane A2 receptor (Rattus norvegicus, UniProt P34978); experiment: In vitro thromboxane A2 receptor antagonism through inhibition of U-46619 induced contraction of rat isolated thoracic aortic strip; assay type: functional; details: read-out: pA2 (converted)
T1 sequence (P34978 whole entry): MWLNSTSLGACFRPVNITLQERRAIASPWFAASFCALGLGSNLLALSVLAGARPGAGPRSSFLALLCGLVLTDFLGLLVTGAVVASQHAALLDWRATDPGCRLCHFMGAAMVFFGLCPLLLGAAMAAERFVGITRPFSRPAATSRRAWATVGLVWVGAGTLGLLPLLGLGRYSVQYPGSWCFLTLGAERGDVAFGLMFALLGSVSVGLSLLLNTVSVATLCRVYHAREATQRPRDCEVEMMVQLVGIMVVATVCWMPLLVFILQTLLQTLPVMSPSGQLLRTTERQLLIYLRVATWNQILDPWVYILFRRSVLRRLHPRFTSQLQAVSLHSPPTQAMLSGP

Thromboxane-A synthase = target: T2, Thromboxane-A synthase (Homo sapiens, UniProt P24557); experiment: In vitro inhibition of collagen-induced thromboxane A2 production in human whole blood; assay type: functional, tissue-based
T2 sequence (P24557 whole entry): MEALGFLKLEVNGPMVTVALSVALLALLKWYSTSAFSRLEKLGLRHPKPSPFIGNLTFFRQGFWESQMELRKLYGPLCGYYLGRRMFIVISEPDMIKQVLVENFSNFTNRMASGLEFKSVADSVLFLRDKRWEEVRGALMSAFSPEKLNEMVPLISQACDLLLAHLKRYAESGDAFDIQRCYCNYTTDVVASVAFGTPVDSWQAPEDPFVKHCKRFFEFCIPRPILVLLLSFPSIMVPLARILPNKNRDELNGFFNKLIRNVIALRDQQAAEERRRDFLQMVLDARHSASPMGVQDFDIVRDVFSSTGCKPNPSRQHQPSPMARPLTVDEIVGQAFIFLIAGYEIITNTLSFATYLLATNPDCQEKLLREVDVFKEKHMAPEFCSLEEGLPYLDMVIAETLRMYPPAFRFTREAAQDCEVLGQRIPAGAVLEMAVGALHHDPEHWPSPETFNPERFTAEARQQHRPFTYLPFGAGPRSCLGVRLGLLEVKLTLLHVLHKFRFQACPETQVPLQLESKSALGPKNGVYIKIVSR

Thromboxane A2 receptor [2] = target: T3, Thromboxane A2 receptor (Homo sapiens, UniProt P21731); experiment: In vitro thromboxane A2 receptor antagonism through inhibition of U-46619 induced platelet aggregation in human whole blood; assay type: functional, tissue-based; details: read-out: pA2 (converted)
T3 sequence (P21731 whole entry): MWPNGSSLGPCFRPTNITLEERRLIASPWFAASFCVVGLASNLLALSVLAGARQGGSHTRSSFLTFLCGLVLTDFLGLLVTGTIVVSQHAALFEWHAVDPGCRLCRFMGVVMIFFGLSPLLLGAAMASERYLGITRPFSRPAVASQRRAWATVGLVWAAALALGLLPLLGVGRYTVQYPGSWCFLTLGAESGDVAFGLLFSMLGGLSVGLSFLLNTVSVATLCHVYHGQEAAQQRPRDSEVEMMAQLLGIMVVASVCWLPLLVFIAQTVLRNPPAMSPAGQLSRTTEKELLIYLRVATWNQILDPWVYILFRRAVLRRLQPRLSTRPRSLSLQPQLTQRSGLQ

[3] = The half life period was determined; assay type: ADME
Canis familiaris [4] = experiment: Tested ex vivo for the percent inhibition of serum TXA2 production with collagen-induced platelet aggregation in conscious dog at dosage of 10 mg/kg for 12 to 24 h; assay type: functional; details: Canis lupus familiaris
Canis familiaris [5] = experiment: Tested ex vivo for the percent inhibition of serum TXA2 production with collagen-induced platelet aggregation in anasthetised dog after administration at a dose of 10 ug/kg/min; assay type: functional; details: Canis lupus familiaris

Compound	Kb (Thromboxane A2 receptor [1])	IC50 (Thromboxane-A synthase)	Kb (Thromboxane A2 receptor [2])	half-life [3]	inhibition in vivo at 10 mg/kg (Canis familiaris [4])	inhibition in vivo at 10 µg/kg/min (Canis familiaris [5])
O=C(O)CCC/C=C(/c1cccnc1)c1cccc(CCNS(=O)(=O)c2ccccc2)c1	0.0158 µM	0.0501 µM	0.794 µM	–	–	–
O=C(O)CCCCO/N=C(/c1cccnc1)c1cccc(CCNS(=O)(=O)c2ccc(I)cc2)c1	0.2 µM	0.2 µM	2 µM	< 30 min	–	–
O=C(O)CO/N=C(/c1cccnc1)c1cccc(CCNS(=O)(=O)c2ccc(I)cc2)c1	0.00158 µM	> 1 µM	0.2 µM	–	–	–
O=C(O)CCC/C=C(/c1cccnc1)c1cccc(CCNS(=O)(=O)c2ccc(Cl)c(Cl)c2)c1	0.0631 µM	0.0631 µM	0.316 µM	–	–	–
CC(C)(CNS(=O)(=O)c1ccc(I)cc1)c1cccc(/C(=N\OCCC(=O)O)c2cccnc2)c1	0.002 µM	0.2 µM	0.316 µM	< 30 min	–	–
O=C(O)CCO/N=C(/c1cccnc1)c1cccc(CCNS(=O)(=O)c2ccc(I)cc2)c1	0.000631 µM	0.501 µM	0.1 µM	< 30 min	–	–
O=C(O)CCCC/C=C(/c1cccnc1)c1cccc(CCNS(=O)(=O)c2ccc(I)cc2)c1	0.01 µM	0.02 µM	0.794 µM	–	–	–
CC(C)(CNS(=O)(=O)c1ccc(I)cc1)c1cccc(/C(=C\CCCC(=O)O)c2cccnc2)c1	0.000631 µM	0.0316 µM	0.2 µM	–	> 90%	> 98%
O=C(O)CCC/C=C(/c1cccnc1)c1cccc(CCNS(=O)(=O)c2ccc([N+](=O)[O-])cc2)c1	0.00398 µM	0.0398 µM	0.631 µM	–	–	–
O=C(O)CCCO/N=C(/c1cccnc1)c1cccc(CCNS(=O)(=O)c2ccc(I)cc2)c1	0.0126 µM	0.2 µM	1.58 µM	< 30 min	–	–
O=C(O)CCC/C=C(/c1cccnc1)c1cccc(CCNS(=O)(=O)c2ccccc2[N+](=O)[O-])c1	0.2 µM	0.0501 µM	1 µM	–	–	–
O=C(O)CC/C=C(/c1cccnc1)c1cccc(CCNS(=O)(=O)c2ccccc2)c1	0.0316 µM	0.0794 µM	7.94 µM	–	–	–
O=C(O)CCC/C=C(/c1cccnc1)c1cccc(CCNS(=O)(=O)c2ccc(I)cc2)c1	0.001 µM	0.0316 µM	0.631 µM	–	–	> 98%
O=C(O)CCC/C=C(/c1cccnc1)c1cccc(CCNS(=O)(=O)c2ccc(F)cc2)c1	0.0251 µM	0.0316 µM	0.794 µM	–	–	–
O=C(O)CCC/C=C(/c1cccnc1)c1cccc(CCCNS(=O)(=O)c2ccccc2)c1	0.126 µM	0.0501 µM	1 µM	–	–	–
O=C(O)CCCCO/N=C(/c1cccnc1)c1cccc(C(F)(F)F)c1 [RIDOGREL]	–	–	–	< 30 min	–	–
